The subject of the experiment is Plasmodium berghei. Description: Luciferase/luciferin-expressing antifolate-resistant parasites were used to infect a culture of HepG2 cells that were pre-incubated with compounds. Infected hepatocytes emit light due to the luciferase reaction. Assay results are presented as the percent inhibition of light emission compared to control. […]. The format is functional. The settings on record: sporozoite; for IC90: read-out: LUCIFERASE INFECTION ASSAY - IC90.

The mark [1] stands for this setting: read-out: LUCIFERASE INFECTION ASSAY - IC50.

As a reminder, the IC50 is the midpoint of a concentration-inhibition curve. A word on the IC90: it is the concentration at which the effect reaches the 90% level. `FC(F)(F)c1ccc2nc(SCc3nc(-c4ccc(Cl)cc4)no3)[nH]c2c1`: the IC90 was > 8.03 µM. The IC50 under setting [1] is > 8.03 µM.

For `C/C(=N\Nc1ccnc2cc(Cl)ccc12)c1ccc(-n2ccnc2)cc1`, the IC90 is > 10 µM. Also, the IC50 (HEPG2TOX_HILL_SLOPE 8.87, HEPG2TOX_R_SQUARED 0.252, read-out: LUCIFERASE INFECTION ASSAY - IC50) was > 10 µM.

On to `COc1cncc(-c2cnn3ccc(Nc4ccc(Oc5ccccc5)cc4)nc23)c1`, for which the IC90 is > 8.06 µM. The IC50 (HEPG2TOX_HILL_SLOPE 17.9, HEPG2TOX_R_SQUARED 0.509, PBLUC_HILL_SLOPE 0.505, PBLUC_R_SQUARED 0.666, read-out: LUCIFERASE INFECTION ASSAY - IC50) is > 8.06 µM.

As for `CN(C)CCNC(=O)c1ccc(-c2cn3c(-c4cccc(Cl)c4)cnc3cn2)cc1`, the IC90 was > 7.86 µM. In addition, the IC50 under setting [1] was > 7.86 µM.

`COC(=O)c1ccc(-n2c(C)cc(-c3csc(NC(=O)/C=C/c4ccccc4[N+](=O)[O-])n3)c2C)cc1`: the IC90 was > 10 µM. Moreover, the IC50 (FFLUC_HILL_SLOPE 15.6, FFLUC_R_SQUARED 0.621, read-out: LUCIFERASE INFECTION ASSAY - IC50) was > 10 µM.

Regarding `CNc1nc2cnc(-c3cccc(Oc4ccccc4)c3)cc2n1-c1cccc(F)c1`, the IC90 was > 10 µM. For the same compound, the IC50 (FFLUC_HILL_SLOPE 5.28, FFLUC_R_SQUARED 0.776, PBLUC_HILL_SLOPE 4.98, PBLUC_R_SQUARED 0.188, read-out: LUCIFERASE INFECTION ASSAY - IC50) stood at 8.03 µM.

`CC1CCN(CC(=O)Nc2cccc(C(=O)Nc3cccc(C(F)(F)F)c3)c2)CC1`: the IC90 was > 10 µM. Moreover, under setting [1], the IC50 is > 10 µM.

In the case of `COc1ccccc1CNC(=O)CSc1nnc(-c2ccccc2)c2ccccc12`, the IC90 was > 10 µM. In addition, under setting [1], the 50% inhibitory concentration (IC50) is > 10 µM.

For the compound `O=c1[nH][nH]c(-c2ccccc2)c1C=NCc1cccc(C(F)(F)F)c1`, the IC90 was > 9.56 µM. Moreover, the IC50 (HEPG2TOX_HILL_SLOPE 6.09, HEPG2TOX_R_SQUARED 0.916, PBLUC_HILL_SLOPE 3.54, PBLUC_R_SQUARED 0.303, read-out: LUCIFERASE INFECTION ASSAY - IC50) was 7.61 µM.

For the compound `COc1ccc(C(CNC(=O)c2cc(Br)ccc2F)N(C)C)cc1` (stereo not given), the IC90 is > 10 µM. The IC50 under setting [1] was > 10 µM.

As to `Nc1nn(C(=O)c2csc3ccccc23)c2ccccc12`, the IC90 is > 10 µM. The IC50 (FFLUC_HILL_SLOPE 1.19, FFLUC_R_SQUARED 0.595, HEPG2TOX_HILL_SLOPE 0.0302, HEPG2TOX_R_SQUARED 0.0617, PBLUC_HILL_SLOPE 0.566, PBLUC_R_SQUARED 0.73, read-out: LUCIFERASE INFECTION ASSAY - IC50) came out at 0.359 µM.

As for `CSc1ccc(-c2cn3c(-c4ccc(C(=O)NC5CC5)cc4)cnc3cn2)cc1`, the IC90 was > 8.24 µM. Where the note is “PBLUC_HILL_SLOPE 11.7, PBLUC_R_SQUARED 0.658, read-out: LUCIFERASE INFECTION ASSAY - IC50”, the 50% inhibitory concentration (IC50) amounted to 7.27 µM.

In the case of `Cc1cc(C)c(NC(=O)C(=O)NC(C)C)c(C)c1`, the IC90 came out at 11 µM. Further, the half-inhibitory concentration (IC50) (PBLUC_HILL_SLOPE 3.55, PBLUC_R_SQUARED 0.214, read-out: LUCIFERASE INFECTION ASSAY - IC50) turned out to be 5.93 µM.

For the compound `OCc1ccc(-c2cnc3cnc(-c4cccs4)cn23)cc1`, the IC90 was 10.6 µM. In addition, where the note is “PBLUC_HILL_SLOPE 16.2, PBLUC_R_SQUARED 0.35, read-out: LUCIFERASE INFECTION ASSAY - IC50”, the IC50 came to 9.27 µM.

For `O=[N+]([O-])c1ccsc1Sc1ccc(C(F)(F)F)cn1`, the IC90 is > 10.8 µM. Moreover, the IC50 (FFLUC_HILL_SLOPE 11.2, FFLUC_R_SQUARED 0.0124, HEPG2TOX_HILL_SLOPE 0.715, HEPG2TOX_R_SQUARED 0.731, read-out: LUCIFERASE INFECTION ASSAY - IC50) is > 10.8 µM.

Regarding `CCCS(=O)(=O)NC(=O)C1(C)CCCN(C(=O)c2ccccc2OC)C1` (stereo not given), the IC90 is > 8.63 µM. For the same compound, the IC50 under setting [1] is > 8.63 µM.

With `NC(=O)C1CN(S(=O)(=O)c2cc(Cl)sc2Cl)c2ccccc2O1` (stereo not given), the IC90 is > 10 µM. Under setting [1], the IC50 was > 10 µM.

In the case of `COc1cc(C(=O)NCCN(C(C)C)C(C)C)cc(OC)c1C`, the IC90 is > 10 µM. The IC50 under setting [1] was > 10 µM.

For `Oc1cccnc1NC(c1ccc(Br)cc1)c1ccc2cccnc2c1O` (stereo not given), the 90% effect concentration (IC90) stood at 7.73 µM. Moreover, for the setting “FFLUC_HILL_SLOPE 24.2, FFLUC_R_SQUARED 0.301, HEPG2TOX_HILL_SLOPE 1.67, HEPG2TOX_R_SQUARED 0.953, PBLUC_HILL_SLOPE 5.65, PBLUC_R_SQUARED 0.637, read-out: LUCIFERASE INFECTION ASSAY - IC50”, the IC50 was 5.24 µM.

For `O=C(c1cccs1)N1CCN(c2cc(C(F)(F)F)nc3ccccc23)CC1`, the IC90 was found to be 3.33 µM. In addition, the IC50 (PBLUC_HILL_SLOPE 13.8, PBLUC_R_SQUARED 0.566, read-out: LUCIFERASE INFECTION ASSAY - IC50) is 2.84 µM.

On to `Cc1ccc(S(=O)(=O)CCN2CCC(C#N)CC2)cc1`, for which the IC90 is > 11.3 µM. Under setting [1], the IC50 was > 11.3 µM.

For `Cc1cc(/C=N/Nc2nc3ccccc3[nH]2)c(C)n1-c1ccc(Cl)c(C(F)(F)F)c1`, the IC90 amounted to 4.05 µM. Also, the IC50 (FFLUC_HILL_SLOPE 2.14, FFLUC_R_SQUARED 0.676, PBLUC_HILL_SLOPE 2.82, PBLUC_R_SQUARED 0.68, read-out: LUCIFERASE INFECTION ASSAY - IC50) came out at 1.86 µM.

Consider `COc1ccc(CNc2ccc3ncc(-c4ccc(OC)c(OC)c4)n3n2)cc1`, for which the concentration for an effect of 90% (IC90) came to 4.78 µM. For the same compound, the IC50 (HEPG2TOX_HILL_SLOPE 2.6, HEPG2TOX_R_SQUARED 0.69, PBLUC_HILL_SLOPE 12.3, PBLUC_R_SQUARED 0.459, read-out: LUCIFERASE INFECTION ASSAY - IC50) is 4 µM.

With `O=S(=O)(NCC(Sc1nnc(Nc2ccccc2)s1)c1ccccc1)c1ccc(Cl)cc1` (stereo not given), the IC90 is > 10 µM. For the same compound, where the note is “PBLUC_HILL_SLOPE 13.6, PBLUC_R_SQUARED 0.626, read-out: LUCIFERASE INFECTION ASSAY - IC50”, the IC50 amounted to 9.35 µM.

Take `O=C(NC1CC1)c1ccc(CN(C2CC2)S(=O)(=O)/C=C/c2ccccc2)cc1`: the concentration for an effect of 90% (IC90) is 4.03 µM. In addition, where the note is “PBLUC_HILL_SLOPE 1.61, PBLUC_R_SQUARED 0.829, read-out: LUCIFERASE INFECTION ASSAY - IC50”, the IC50 was 1.03 µM.

For `C/C(=C\c1ccco1)CN1CCc2c(c(C(=O)NCc3ccccn3)nn2CCc2ccccc2)C1`, the IC90 was > 6.85 µM. Also, the IC50 under setting [1] is > 6.85 µM.

On to `COCCN(CCOC)C(=O)CSc1nnc(/C=C/c2ccccc2)[nH]1`, for which the IC90 is > 10 µM. For the same compound, the IC50 under setting [1] is > 10 µM.

As for `Cc1ccc2c(c1)/C(=N\NC(=O)c1nc(Cl)c(Cl)c(N)c1Cl)C(=O)N2`, the IC90 is > 10 µM. Further, the IC50 (FFLUC_HILL_SLOPE 3.8, FFLUC_R_SQUARED 0.785, read-out: LUCIFERASE INFECTION ASSAY - IC50) is > 10 µM.

`CN(C)C(=O)N1CCC(C(=O)N2CC(=O)N(C3CCCCC3)CC(OCc3ccncc3)C2)CC1` (stereo not given): the IC90 is > 6.8 µM. Moreover, the IC50 under setting [1] was > 6.8 µM.

Consider `CC(C)c1cccc(NC(=O)COc2ccc(S(N)(=O)=O)cc2[N+](=O)[O-])c1`, for which the IC90 was > 10 µM. In addition, the IC50 under setting [1] is > 10 µM.

As to `O=C(Nc1ccc(OC(F)(F)F)cc1)N1CCc2nc(Nc3cc(Cl)cc(Cl)c3)ncc2C1`, the IC90 was > 6.62 µM. For the same compound, the IC50 under setting [1] was > 6.62 µM.

For the compound `Cc1cc(/C=C(\C#N)c2nc3ccccc3s2)c(C)n1-c1ccc(F)cc1`, the IC90 was > 10 µM. Further, the IC50 under setting [1] was > 10 µM.

For `Cc1ccc(C(NCC(=O)Nc2cc(S(C)(=O)=O)ccc2Cl)c2ccccc2)cc1C` (stereo not given), the IC90 was 4.49 µM. The IC50 (PBLUC_HILL_SLOPE 11.2, PBLUC_R_SQUARED 0.465, read-out: LUCIFERASE INFECTION ASSAY - IC50) came out at 3.69 µM.

As to `CN(/N=C/c1cc(Cl)cc(Cl)c1O)c1ccc([N+](=O)[O-])cn1`, the IC90 was > 9.67 µM. Besides, under “FFLUC_HILL_SLOPE 1.05, FFLUC_R_SQUARED 0.5, read-out: LUCIFERASE INFECTION ASSAY - IC50”, the IC50 was > 9.67 µM.

`COc1ccc(CC(N)c2csc(NC(=O)c3cccc(OC(F)(F)F)c3)n2)cc1` (stereo not given): the IC90 was 7.48 µM. Where the note is “PBLUC_HILL_SLOPE 9.24, PBLUC_R_SQUARED 0.637, read-out: LUCIFERASE INFECTION ASSAY - IC50”, the IC50 is 5.89 µM.

On to `CN1/C(=C\C(=O)COC(=O)C2Cc3ccccc3CN2C(=O)c2ccccc2)C(C)(C)c2ccccc21` (stereo not given), for which the IC90 is > 10 µM. In addition, the IC50 (PBLUC_HILL_SLOPE 1.63, PBLUC_R_SQUARED 0.576, read-out: LUCIFERASE INFECTION ASSAY - IC50) stood at 3.35 µM.

Turning to `O=C(N/N=C/c1ccccc1C(F)(F)F)c1[nH]c2ccccc2c1-c1ccccc1`, the IC90 is 1.07 µM. The IC50 (FFLUC_HILL_SLOPE 16.3, FFLUC_R_SQUARED 0.334, HEPG2TOX_HILL_SLOPE 1.94, HEPG2TOX_R_SQUARED 0.976, PBLUC_HILL_SLOPE 7.87, PBLUC_R_SQUARED 0.839, read-out: LUCIFERASE INFECTION ASSAY - IC50) is 0.813 µM.

As for `Cc1ccc(OCCNC(=O)c2[nH]c3c(c2C)C(=O)CCC3)c(C)c1`, the IC90 was 2.74 µM. Also, the IC50 (HEPG2TOX_HILL_SLOPE 1.42, HEPG2TOX_R_SQUARED 0.935, PBLUC_HILL_SLOPE 2.91, PBLUC_R_SQUARED 0.758, read-out: LUCIFERASE INFECTION ASSAY - IC50) stood at 1.29 µM.

Take `N#Cc1c(SCc2ccc(F)cc2)nc(N2CCOCC2)c2c1CCCC2`: the IC90 is > 8.61 µM. The IC50 under setting [1] was > 8.61 µM.

In the case of `COc1cccc(N(C)S(=O)(=O)c2cccc3cc(C)cnc23)n1`, the IC90 was determined as 3.82 µM. Moreover, under “PBLUC_HILL_SLOPE 18.8, PBLUC_R_SQUARED 0.316, read-out: LUCIFERASE INFECTION ASSAY - IC50”, the IC50 came out at 3.4 µM.

Source of the values: ChEMBL document CHEMBL4483862, “Open-source discovery of chemical leads for next-generation chemoprotective antimalarials” (2018).
